{
  "source": "PubChem BioAssay AID1996",
  "data": [
    {"conditions": "buffer; pH 7.4; 200.0 µM", "units": {"solubility kinetic": "µg/mL"}, "values": [
      {"compound": "Oc1ccc(Nc2nc(-c3ccccc3)nc3ccccc23)cc1", "solubility kinetic": 2.3},
      {"compound": "Cn1ccc(C(=O)N/N=C/c2ccncc2)n1", "solubility kinetic": "> 34.4"},
      {"compound": "CCN(CC)C(=O)C1CCCN(C/C=C/c2ccccc2[N+](=O)[O-])C1", "note": "(stereo not given)", "solubility kinetic": 41.7},
      {"compound": "CCOC(=O)c1sc(NC(=O)CCc2ccccc2)nc1C", "solubility kinetic": "< 0.3"},
      {"compound": "O=C(COc1ncnc2ccccc12)NCCc1ccccc1", "solubility kinetic": 44.8},
      {"compound": "CCC1(c2ccccc2)NC(=O)N(CC(=O)N2CCc3ccccc32)C1=O", "note": "(stereo not given)", "solubility kinetic": 6.8},
      {"compound": "CCOC(=O)c1c(-c2cccc(N)c2)cn2ccccc12", "solubility kinetic": 35.1},
      {"compound": "CC1CN(C(=O)c2ccc(COc3ccccc3Cl)o2)CC(C)O1", "note": "(stereo not given)", "solubility kinetic": "> 52.5"},
      {"compound": "CC(OC(=O)c1ccc2noc(-c3ccccc3)c2c1)C(N)=O", "note": "(stereo not given)", "solubility kinetic": 46.3},
      {"compound": "O=[N+]([O-])c1cc(S(=O)(=O)N2CCOCC2)ccc1NS(=O)(=O)c1ccccc1", "solubility kinetic": "> 64.1"},
      {"compound": "CCN(Cc1cc2ccccc2[nH]c1=O)C(=O)c1cccc([N+](=O)[O-])c1", "solubility kinetic": 39.3},
      {"compound": "O=C(NC1C/C(=N/O)c2cc3c(cc21)OCO3)C(F)(F)F", "note": "(stereo not given)", "solubility kinetic": 32.3},
      {"compound": "O=C(OCc1ccccc1)c1cccnc1Cl", "solubility kinetic": 32.5},
      {"compound": "Cn1c(SCc2ccccc2C#N)nc2ccccc2c1=O", "solubility kinetic": 1},
      {"compound": "COc1ccc(C2CC(=O)C=C(NCc3ccc4c(c3)OCO4)C2)cc1", "note": "(stereo not given)", "solubility kinetic": 8.5},
      {"compound": "Cc1nn(-c2ccccn2)c(N)c1N=O", "solubility kinetic": "> 30.5"},
      {"compound": "O=C(COc1ccccc1Cl)N1CCCCCCC1", "solubility kinetic": 31.4},
      {"compound": "N#Cc1c(C(F)(F)F)cc(=O)n2c1[nH]c1ccccc12", "solubility kinetic": "> 41.6"},
      {"compound": "O=C1c2ccccc2C(O)(c2ccccc2)N1C1CC1", "note": "(stereo not given)", "solubility kinetic": 38.3},
      {"compound": "COc1ccc(C2CC3(O)CC(C#N)(C(=O)N3)C2(C#N)C#N)cc1", "note": "(stereo not given)", "solubility kinetic": "> 48.3"},
      {"compound": "Cc1cccc(OCCNC(=O)CCc2ccccc2)c1", "solubility kinetic": 34.4},
      {"compound": "COC(=O)c1ccc(Cn2cc(/C=C\\[N+](=O)[O-])c3ccccc32)o1", "solubility kinetic": 1.6},
      {"compound": "CC(OC(=O)c1cccc(N(C)C)c1)C(=O)N1CCc2ccccc2C1", "note": "(stereo not given)", "solubility kinetic": 37.3},
      {"compound": "Cc1cc(C(=O)OCC(=O)Nc2cccc(S(N)(=O)=O)c2)c(C)o1", "solubility kinetic": "> 52.9"},
      {"compound": "COc1ccc(C2c3ccc(O)cc3Oc3ncn(CCCO)c(=N)c32)cc1", "note": "(stereo not given)", "solubility kinetic": "> 56.9"},
      {"compound": "COc1ccccc1-n1c(-c2ccccc2)nc2ccccc2c1=O", "solubility kinetic": "> 49.3"},
      {"compound": "COc1cc2c(cc1OC)C(c1ccccc1Cl)N(C)CC2", "note": "(stereo not given)", "solubility kinetic": 36.4},
      {"compound": "CCOc1ccc(Br)cc1S(=O)(=O)Nc1ccc(S(=O)(=O)Nc2cc(C)on2)cc1", "solubility kinetic": 9.3},
      {"compound": "C=CCn1c(COc2ccccc2)nc2ccccc21", "solubility kinetic": 31.9},
      {"compound": "COc1cccc(/C=C/C(=O)NCc2ccc3c(c2)OCO3)c1", "solubility kinetic": 11.4},
      {"compound": "O=C(NC(=S)Nc1cccc2cc(O)ccc12)c1ccco1", "solubility kinetic": 13.2},
      {"compound": "Cc1ccccc1NC(=O)CSc1nc2ccccc2c(=O)n1C", "solubility kinetic": 3},
      {"compound": "O=C(CCCN1CCC2(CC1)C(=O)NCN2c1ccccc1)c1ccc(F)cc1", "solubility kinetic": 50.1},
      {"compound": "Cc1ccc(S(=O)(=O)N2CCN(c3ncnc4scc(-c5ccccc5)c34)CC2)cc1", "solubility kinetic": 0.9},
      {"compound": "CCCCC(CC)COCCCN=Cc1c(O)[nH]c(=S)[nH]c1=O", "note": "(stereo not given)", "solubility kinetic": 4.1},
      {"compound": "NS(=O)(=O)c1ccc(CNc2ncnc3sccc23)cc1", "solubility kinetic": "> 48.1"},
      {"compound": "Cc1ccc2c(C)c(C(=O)NCCN3CCOC3=O)oc2c1C", "solubility kinetic": "> 47.5"},
      {"compound": "CCN(CC)c1ccc(NC(=O)c2cc3c(OC)cccc3[nH]2)cc1", "solubility kinetic": 0.5},
      {"compound": "Cc1nc2ccccc2n1CCOc1ccccc1", "solubility kinetic": "> 37.8"},
      {"compound": "CCNc1nc(NC(C)C)nc(N(C#N)CC(=O)OC)n1", "solubility kinetic": "> 44"},
      {"compound": "O=C(Nc1ccc(F)cc1)OC1CN2CCC1CC2", "note": "(stereo not given)", "solubility kinetic": "> 39.6"},
      {"compound": "COc1ccc(N2C(=O)c3ccccc3C(C)(C)C2=O)cc1", "solubility kinetic": 5.4},
      {"compound": "Cc1ccc(S(=O)(=O)NCc2cccnc2)c(C)c1", "solubility kinetic": "> 41.5"},
      {"compound": "Cc1ccc(C)c(Oc2cc(F)nc(N)n2)c1", "solubility kinetic": "> 35"},
      {"compound": "COC(=O)CSc1ncnc2scc(-c3ccccc3)c12", "solubility kinetic": 11.2},
      {"compound": "O=C(O)CCCC(=O)Nc1ccc(Oc2ncnc3cc(Cl)ccc23)nc1", "solubility kinetic": "> 58"},
      {"compound": "CN(C)c1ccc(/C=N/NC(=O)CNC(=O)c2ccncc2)cc1", "solubility kinetic": "> 48.8"},
      {"compound": "CC(C)Cc1ccc(/C=C/C(=O)N2CCCCC2)cc1", "solubility kinetic": 11.6},
      {"compound": "NC(=O)C1CCN(c2ccc(C(F)(F)F)cn2)CC1", "solubility kinetic": "> 41"},
      {"compound": "[O-][N+]1=c2ccc(Nc3ccccc3)cc2=NC12CCCCC2", "solubility kinetic": "< 0.2"},
      {"compound": "O=C1c2nccnc2C(=O)N1c1ccc(C(F)(F)F)cc1", "solubility kinetic": 39.5},
      {"compound": "O=C(O)c1ccccc1Nc1ccc2nonc2c1[N+](=O)[O-]", "solubility kinetic": "> 45"},
      {"compound": "COc1cccc(C(=O)NCCCNC(=O)c2ccccn2)c1", "solubility kinetic": 43.3},
      {"compound": "COc1cc(C)c(S(=O)(=O)NCCCn2ccnc2)cc1C", "solubility kinetic": 39.6},
      {"compound": "Cc1cc(N/C=C(\\C#N)S(=O)(=O)c2ccc(Cl)cc2)nc(C)n1", "solubility kinetic": 12.9},
      {"compound": "O=C(NCc1ccco1)c1cnn2cccnc12", "solubility kinetic": "> 36.3"},
      {"compound": "Cc1c2c(n3c(nc4ccccc43)c1C#N)N(CCCN(C)C)CC2", "solubility kinetic": "> 50"},
      {"compound": "COc1ccc(CCn2c(C)c(C(C)=O)c(C(C)=O)c2C)cc1OC", "solubility kinetic": "> 51.5"},
      {"compound": "O=C(COC(=O)Cc1c(Cl)cccc1Cl)NC1CCCC1", "solubility kinetic": "> 49.5"},
      {"compound": "CN(CC(=O)NCc1ccncc1)S(=O)(=O)c1ccc(Cl)cc1", "solubility kinetic": "> 53.1"}
    ]}
  ]
}
